In paper PMC4047216 (European journal of pharmacology, 2014):

Legend:
[1] = ref Saadeddin et al., 2004; cited from earlier work
HP-LTLC cells = experiment: MTT combination of VN/14-1 with thapsigargin, Chou-Talalay analysis; type: cell-based, human; conditions: in combination VN/14-1 + thapsigargin

Compound | Oral bioavailability (F) [1] | DRI (dose reduction index) (HP-LTLC cells; 50% inhibition) | DRI (dose reduction index) (HP-LTLC cells; 75% inhibition) | DRI (dose reduction index) (HP-LTLC cells; 95% inhibition)
CC1=C(/C=C/C(C)=C/C=C/C(C)=C/C(=O)O)C(C)(C)CCC1 [ATRA] | ~ 40% | – | – | –
C/C=C(/C)C(=O)O[C@H]1C(C)=C2[C@H]([C@@H]1OC(=O)CCCCCCC)[C@@](C)(OC(C)=O)C[C@H](OC(=O)CCC)[C@@]1(O)[C@H]2OC(=O)[C@@]1(C)O [thapsigargin] | – | 11.498 | 31.584 | 172.494
